The values below come from patent publication US11583552B2, “Pharmaceutical formulation of arsenic trioxide” (priority 2021, dated 2023).

For series [1] the following is noted: cited from earlier work.
The nature of series [2]: Inhouse trials: Arsenic Trioxide in glycerin with sodium hydroxide. It is filed as physicochemical. The settings on record: dissolved first in sodium hydroxide solution, then added to Glycerin.

Where two headings read alike, the source gives them in different places.

Regarding Arsenic Trioxide, the figures for the “solubility of Arsenic Trioxide in 100 g of water” value in series [1] (0° C.), in series [1] (25° C.) and in series [1] (75° C.) were 1.2 g, 2.1 g and 5.6 g, respectively. The “solubility in alcohol, chloroform, and ether” value in series [1] is reported as “insoluble”. For the same substance, in series [2], the “concentrated solution of Arsenic Trioxide formed in presence of Glycerin” value was determined as 157400 µg/mL.
